In patent US11286228B2, “Stilbene derivative and method for preparing same” (Ozchela Inc., priority 2016, dated 2022):
Where two headings read alike, the source gives them in different places.

Experiments:
cyclophilin = experiment: Cis-trans isomerase inhibitory activity (chymotrypsin-coupled Suc-AAPF-pNA cleavage, absorbance 390 nm); format: biochemical
Excerpt: Chymotrypsin cleaves a trans-type alanine-proline peptide bond. When Suc-AAPF-pNA (a peptide substrate) and chymotrypsin are mixed, the trans-type peptide substrate is cleaved and the cis-type peptide substrate remains. The remaining cis-type peptide substrate is converted into a trans form by a cis-trans isomerase and is then cleaved again by chymotrypsin. When the cis-trans isomerase is present, chymotrypsin is able to cleave a larger amount of trans-type peptide substrate within a predetermined period of time, from which the activity of the cis-trans isomerase may be determined. The amount of the cleaved trans-type peptide substrate is measured using absorbance at 390 nm. Cyclophilin has cis-trans isomerase activity, and accelerates the cleavage of trans-type peptide substrate by chymotrypsin. When the stilbene derivatives of the present invention were treated together with cyclophilin, the cleavage of the peptide substrate by chymotrypsin was not observed to accelerate. Thereby, the stilbene derivatives of the invention can be concluded to inhibit the activity of cyclophilin.

hepatitis C virus = experiment: Antiviral activity in HCV replicon cells (Renilla luciferase); format: cell-based
Procedure: The antiviral activity of the stilbene derivatives on hepatitis C virus was measured. The replicon cells that stably replicate the hepatitis C virus genome were attached to a culture plate and cultured in a CO2 incubator at 37° C. for 24 hr. The replicon cells cultured for one day were washed with a PBS solution, treated with the compounds of the present invention, and then cultured for 72 hr. The stilbene derivative-treated replicon cells were washed with a cold PBS solution and added with 20 μL of a cell lysis solution so that the cells were lysed in ice for 20 min. 100 μL of a Renilla luciferase substrate was added thereto, after which the luminescence thereof was measured and thus the amount of the hepatitis C virus genome was estimated. The amount of the hepatitis C virus genome in the stilbene derivative-treated replicon cells according to the present invention relative to the amount of the hepatitis C virus genome in dimethylsulfoxide (DMSO)-treated replicon cells is shown.
Compounds 1 to 155 of Tables 1 to 10 may be grouped as follows based on the antiviral activity (EC50) values: […]

[1] = system: mitochondria obtained from hepatocytes; experiment: Inhibitory activity on calcium-induced mitochondrial swelling (absorbance 520 nm)
Excerpt: Cyclophilin is a key protein for forming permeability transition pores (PTP) in mitochondria. When permeability transition pores are formed, mitochondria swell, whereby the outer membrane thereof ruptures and thus cell death progresses. Such mitochondrial dysfunction causes many diseases including neurodegenerative diseases, cancer, and the like. Cyclosporine, a known cyclophilin inhibitor, is capable of preventing the formation of permeability transition pores to thus suppress mitochondrial swelling.
The mitochondrial swelling test was performed as follows. Specifically, the hepatocytes were disrupted using a Dounce tissue grinder. The disrupted cells were centrifuged at 700×g for 10 min and the supernatant was transferred into a new tube. The supernatant was centrifuged at 12,000×g for 15 min, thereby obtaining mitochondria.
When the extracted mitochondria were added with calcium, they swelled, which may be observed by measuring the absorbance at 520 nm. The stilbene derivatives are effective at inhibiting mitochondrial swelling due to calcium.
The activity of Compounds 1 to 155 of Tables 1 to 10 on inhibiting mitochondrial swelling may be determined based on IC50 values, and may be grouped as follows: […]

[2] = cyclophilin, chymotrypsin, Suc-AAPF-pNA, read-out: Test Example 1: cis-trans isomerase inhibitory activity (IC50)
[3] = Hepatitis C virus, HCV replicon cells, 72 hr, Renilla luciferase, relative to DMSO, read-out: Test Example 3: antiviral activity (EC50)
[4] = Hepatocyte, calcium-induced swelling of extracted mitochondria, read-out: Test Example 4: inhibiting mitochondrial swelling (IC50)
[5] = HCV replicon cells, 72 hr, Renilla luciferase, relative to DMSO, read-out: Test Example 3: antiviral activity (EC50)
[6] = calcium-induced swelling of extracted mitochondria, read-out: Test Example 4: inhibiting mitochondrial swelling (IC50)
[7] = read-out: Test Example 1: cis-trans isomerase inhibitory activity (IC50) group
[8] = HCV replicon cells, read-out: Test Example 3: antiviral activity (EC50) group
[9] = read-out: Test Example 4: activity on inhibiting mitochondrial swelling (IC50) group
[10] = Hepatitis C virus, 72 h, read-out: Test Example 3: antiviral activity (EC50)
[11] = Hepatitis C virus, HCV replicon cells, read-out: Test Example 3: antiviral activity (EC50) group
[12] = Hepatocyte, read-out: Test Example 4: activity on inhibiting mitochondrial swelling (IC50) group

| SMILES | IC50 (cyclophilin; [2]) | EC50 (hepatitis C virus; [3]) | IC50 [1, 4] | also measured |
| --- | --- | --- | --- | --- |
| Cc1ccc(CCc2ccccc2C=C(C#N)c2ccc([N+](=O)[O-])cc2)cc1 [Compound 52] | 0.02 to 0.2 µM | 0.5 to 5 µM | 5 to 50 µM | – |
| N#CC(=Cc1ccccc1C(=O)O)c1ccc(CCC2CC2)cc1 [Compound 62] | ≤ 0.02 µM | < 0.5 µM | < 5 µM | – |
| CCOc1ccc(C(C#N)=Cc2ccccc2OC)cc1 [Compound 16] | 0.2 to 2 µM | 5 to 50 µM | 50 to 500 µM | – |
| N#CC(=Cc1ccccc1Cc1c(Cl)cccc1Cl)c1ccc([N+](=O)[O-])cc1 [Compound 37] | 0.02 to 0.2 µM | 0.5 to 5 µM | 5 to 50 µM | – |
| CC(C)(C)C(=O)c1ccc(C(C#N)=Cc2ccccc2C(=O)O)cc1 [Compound 15] | 0.2 to 2 µM | – | – | EC50 (hepatitis C virus; [5]): 5 to 50 µM; IC50 [1, 6]: 50 to 500 µM |
| N#CC(=Cc1ccccc1N1CCCCC1)c1ccc([N+](=O)[O-])cc1 [Compound 29] | 0.2 to 2 µM | 5 to 50 µM | 50 to 500 µM | – |
| CC(C)(C)Cc1ccc(C=Cc2cc(O)ccc2C(=O)O)cc1 [Compound 153] | – | – | – | IC50 (cyclophilin; [7]): 0.02 to 0.2 µM; EC50 (hepatitis C virus; [8]): 0.5 to 5 µM; IC50 [1, 9]: 5 to 50 µM |
| CC(C)(C)c1ccc(C(C#N)=Cc2ccccc2C(=O)O)cc1 [Compound 10] | 0.02 to 0.2 µM | 0.5 to 5 µM | 5 to 50 µM | – |
| CCCCOC(=O)c1ccccc1C=Cc1ccc(Cc2ccccc2)cc1 [Compound 81] | 0.02 to 0.2 µM | – | 5 to 50 µM | EC50 (hepatitis C virus; [10]): 0.5 to 5 µM |
| CCCCCc1ccc(C=Cc2ccccc2C(=O)OCCCC)cc1 [Compound 132] | ≤ 0.02 µM | < 0.5 µM | < 5 µM | – |
| CCCCOc1ccc(C(C#N)=Cc2ccccc2OC)cc1 [Compound 18] | 0.02 to 0.2 µM | 0.5 to 5 µM | 5 to 50 µM | – |
| N#CC(=Cc1ccccc1C(=O)O)c1ccc(CC2CC2)cc1 [Compound 61] | ≤ 0.02 µM | < 0.5 µM | < 5 µM | – |
| N#CC(=Cc1ccccc1OCC1CC1)c1ccc([N+](=O)[O-])cc1 [Compound 27] | 0.02 to 0.2 µM | – | – | EC50 (hepatitis C virus; [5]): 0.5 to 5 µM; IC50 [1, 6]: 5 to 50 µM |
| N#CC(=Cc1ccccc1N)c1ccc([N+](=O)[O-])cc1 [Compound 24] | 0.2 to 2 µM | 5 to 50 µM | 50 to 500 µM | – |
| CCCCOC(=O)c1ccccc1C=Cc1ccc(CC(C)(C)C)cn1 [Compound 143] | 0.02 to 0.2 µM | 0.5 to 5 µM | 5 to 50 µM | – |
| CCCCOC(=O)c1ccccc1C=C(N)c1ccc(Cc2ccccc2)cc1 [Compound 111] | 0.02 to 0.2 µM | – | 5 to 50 µM | EC50 (hepatitis C virus; [10]): 0.5 to 5 µM |
| CC(=Cc1ccccc1C(=O)OC(C)C)c1ccc(CC(C)(C)C)cc1 [Compound 89] | 0.02 to 0.2 µM | 0.5 to 5 µM | 5 to 50 µM | – |
| CCC(C)c1ccc(C(C#N)=Cc2ccccc2C(=O)O)cc1 (stereo not drawn) [Compound 9] | 0.02 to 0.2 µM | – | – | EC50 (hepatitis C virus; [5]): 0.5 to 5 µM; IC50 [1, 6]: 5 to 50 µM |
| CC(C)C(C)Cc1ccc(C(C#N)=Cc2ccccc2C(=O)O)cc1 (stereo not drawn) [Compound 58] | 0.02 to 0.2 µM | – | 5 to 50 µM | EC50 (hepatitis C virus; [10]): 0.5 to 5 µM |

| SMILES | IC50 (cyclophilin; [2]) | EC50 (hepatitis C virus; [3]) | IC50 [1, 4] | also measured |
| --- | --- | --- | --- | --- |
| CC(C)(C)Cc1ccc(C=Cc2cc(N)ccc2C(=O)O)cc1 [Compound 154] | – | – | – | IC50 (cyclophilin; [7]): 0.02 to 0.2 µM; EC50 (hepatitis C virus; [11]): 0.5 to 5 µM; IC50 [1, 12]: 5 to 50 µM |
| N#CC(=Cc1ccccc1CCc1ccccc1)c1ccc([N+](=O)[O-])cc1 [Compound 38] | 0.02 to 0.2 µM | 0.5 to 5 µM | 5 to 50 µM | – |
| CCCCOC(=O)c1c(C=C(N)c2ccc(CC(C)(C)C)cc2)ccc(C)c1C [Compound 102] | 0.02 to 0.2 µM | 0.5 to 5 µM | 5 to 50 µM | – |
| CC(C)(C)Cc1ccc(C(Cl)=Cc2ccccc2C(=O)OC2CCCCC2)cc1 [Compound 121] | ≤ 0.02 µM | < 0.5 µM | < 5 µM | – |
| CCCCOC(=O)c1cccnc1C=Cc1ccc(CC(C)(C)C)cc1 [Compound 148] | – | – | – | IC50 (cyclophilin; [7]): 0.02 to 0.2 µM; EC50 (hepatitis C virus; [8]): 0.5 to 5 µM; IC50 [1, 9]: 5 to 50 µM |
| CC(C)c1ccc(C(C#N)=Cc2ccccc2Cl)cc1 [Compound 4] | 0.2 to 2 µM | 5 to 50 µM | 50 to 500 µM | – |
| CC(C)C(C)c1ccc(C(C#N)=Cc2ccccc2C(=O)O)cc1 (stereo not drawn) [Compound 55] | 0.02 to 0.2 µM | 0.5 to 5 µM | 5 to 50 µM | – |
| Cc1ccc(C(=O)O)c(C=Cc2ccc(CC(C)(C)C)cc2)c1 [Compound 155] | – | – | – | IC50 (cyclophilin; [7]): 0.02 to 0.2 µM; EC50 (hepatitis C virus; [11]): 0.5 to 5 µM; IC50 [1, 12]: 5 to 50 µM |
| CC(=Cc1ccccc1C(=O)OCC1CCCCC1)c1ccc(CC(C)(C)C)cc1 [Compound 90] | 0.02 to 0.2 µM | 0.5 to 5 µM | 5 to 50 µM | – |
| Cc1cccc(C(=O)O)c1C=Cc1ccc(CC(C)(C)C)cc1 [Compound 152] | – | – | – | IC50 (cyclophilin; [7]): ≤ 0.02 µM; EC50 (hepatitis C virus; [11]): < 0.5 µM; IC50 [1, 12]: < 5 µM |
| CCCCCOC(=O)c1ccccc1C=C(C)c1ccc(CC(C)(C)C)cc1 [Compound 88] | 0.02 to 0.2 µM | 0.5 to 5 µM | 5 to 50 µM | – |
| COc1ccccc1C=C(C#N)c1ccc(C(=O)C(C)(C)C)cc1 [Compound 14] | 0.02 to 0.2 µM | 0.5 to 5 µM | 5 to 50 µM | – |
| CCCCOC(=O)c1ccccc1C=C(N)c1ccc(CC(C)(C)C)cc1 [Compound 98] | 0.02 to 0.2 µM | 0.5 to 5 µM | 5 to 50 µM | – |
| CCC(C)Oc1ccccc1C=C(C#N)c1ccc([N+](=O)[O-])cc1 (stereo not drawn) [Compound 26] | 0.2 to 2 µM | 5 to 50 µM | 50 to 500 µM | – |
| CCCCOC(=O)c1ccccc1C=C(Br)c1ccc(CC(C)(C)C)cc1C [Compound 114] | ≤ 0.02 µM | < 0.5 µM | < 5 µM | – |
| CC(C)(C)Cc1ccc(C=Cc2ccc(O)cc2C(=O)O)cc1 [Compound 136] | ≤ 0.02 µM | < 0.5 µM | < 5 µM | – |
| Cc1ccc(C(C#N)=Cc2ccccc2N(C)C)cc1 [Compound 1] | 0.2 to 2 µM | 5 to 50 µM | 50 to 500 µM | – |
| COc1ccccc1C=C(C#N)c1ccc(C(C)C)cc1 [Compound 6] | 0.2 to 2 µM | 5 to 50 µM | 50 to 500 µM | – |
